Here are results for 13 compounds from ChEMBL document CHEMBL1136493, “Synthesis and anti-HIV properties of new water-soluble bis-functionalized[60]fullerene derivatives” (Bioorg Med Chem Lett, 2003).

Conditions in all cases: Homo sapiens
Assay [1] has as its system CCRF-CEM. Kind of assay: Effective concentration required to inhibit HIV-induced (HIV-2) cytopathicity by 50% in CEM cell cultures. The class given is functional, cell-based. (Cytopathic effects are the visible damage that an infection or toxin causes in cultured cells.)
The test system of assay [2] is CCRF-CEM. In words: Effective concentration required to inhibit HIV-induced (HIV-1) cytopathicity by 50% in CEM cell cultures. Format: functional, cell-based.
Assay [3] has as its system CCRF-CEM. Kind of assay: Cytostatic concentration required to inhibit CEM cell proliferation by 50%. The class given is functional.

Structures are written as SMILES.

Usually EC50 stands for the concentration at which the effect is half-maximal. The term CC50 denotes the concentration giving 50% cytotoxicity. Low values mean greater toxicity to the cells, high ones lower toxicity to the cells.

With `C[N+]1(CCOCCOCCN)CC23C4=c5c6c7c8c9c%10c%11c%12c%13c%14c%15c%16c%17c%18c%19c%20c%21c%22c%23c%24c(c2c%22c2c%22c%25c%26c(c5c(c6%10)c5c%11c6c%13c(c%14%18)c%10c%19c(c%212)c%25c%10c6c%265)C%223C1)C4C7c1c-%24c(c-%16c(c1-8)C%15C9%12)C%23C%17%20` (stereo not given), the EC50 with CCRF-CEM [1] and in the assay with CCRF-CEM [2] was above 4 µM each time. The cytotoxic concentration (CC50) with CCRF-CEM [3] was found to be 44.3 µM.
Regarding `NCCOCCOCCN1CC23C4=c5c6c7c8c9c%10c%11c%12c%13c9c9c%14c%15c%16c%17c%18c%19c%20c%21c%22c%23c%24c(c-%11c(c2c%24c2c%11c%24c%25c(c5c5c6c(c8%14)c%15c6c%17c(c%25c56)c5c%18c%21c(c%232)c%245)C%113C1)C4C%107)C%12C%22C%201CN(CCOCCOCCN)CC%131C9C%19%16` (stereo not given), the 50% effective concentration (EC50) with CCRF-CEM [1] and with CCRF-CEM [2] was above 4 µM in each case. This compound came in with a CC50 in the assay on CCRF-CEM [3] of 7.2 µM.
With `NCCOCCOCCN1CC23C4=C5c6c7c8c9c(c%10c%11c%12c%13c%14c%15c%16c%17c%18c%19c%20c%21c%22c%23c(c6c6c%22c%22c%20c(c%15%19)c%13c(c%129)c%22c86)C5C5C6c8c9c(c-%17c%12c8C5C%23C%21C%12%18)C5c8c-9c(c2c-%10c8C%112CN(CCOCCOCCN)CC%142C%165)C46)C73C1` (stereo not given), the EC50 with CCRF-CEM [1] and in the assay with CCRF-CEM [2] was above 4 µM each time. The compound further registered a CC50 in the assay with CCRF-CEM [3] of 9.6 µM.
In the case of `O=C(O)CN(CCOCCOCCN1CC23C4=c5c6c7c8c9c%10c%11c%12c%13c9c9c%14c%15c%16c%17c%18c%19c%20c%21c%22c%23c%24c(c-%11c(c2c%24c2c%11c%24c%25c(c5c5c6c(c8%14)c%15c6c%17c(c%25c56)c5c%18c%21c(c%232)c%245)C%113C1)C4C%107)C%12C%22C%201CN(CCOCCOCCN(CC(=O)O)CC(=O)O)CC%131C9C%19%16)CC(=O)O` (stereo not given), the concentration giving a half-maximal response (EC50) in the assay with CCRF-CEM [1] is above 4 µM; in the assay on CCRF-CEM [2] it was 2.01 µM.
For `O=C(O)CN(CCOCCOCCN1CC23C4=C5c6c7c8c9c(c%10c%11c%12c%13c%14c%15c%16c%17c%18c%19c%20c%21c%22c%23c(c6c6c%22c%22c%20c(c%15%19)c%13c(c%129)c%22c86)C5C5C6c8c9c(c-%17c%12c8C5C%23C%21C%12%18)C5c8c-9c(c2c-%10c8C%112CN(CCOCCOCCN(CC(=O)O)CC(=O)O)CC%142C%165)C46)C73C1)CC(=O)O` (stereo not given), the EC50 with CCRF-CEM [1] and in the assay on CCRF-CEM [2] was above 4 µM throughout.
`COCCOCCOCCOC(=O)C1(C(=O)OCCOCCOCCOC)C23C4=c5c6c7c8c9c%10c%11c%12c%13c9c9c%14c%15c%16c%17c%18c%19c%20c%21c%22c%23c%24c(c-%11c(c2c%24c2c%11c%24c%25c(c5c5c6c(c8%14)c%15c6c%17c(c%25c56)c5c%18c%21c(c%232)c%245)C%1113)C4C%107)C%12C%22C%201CN(CCOCCOCCN)CC%131C9C%19%16` (stereo not given): the concentration giving a half-maximal response (EC50) in the assay on CCRF-CEM [1] and in the assay on CCRF-CEM [2] was above 4 µM throughout.
Consider `C[N+]1(CCOCCOCCN)CC23C4=c5c6c7c8c9c%10c%11c%12c%13c9c9c%14c%15c%16c%17c%18c%19c%20c%21c%22c%23c%24c(c-%11c(c2c%24c2c%11c%24c%25c(c5c5c6c(c8%14)c%15c6c%17c(c%25c56)c5c%18c%21c(c%232)c%245)C%113C1)C4C%107)C%12C%22C%201C[N+](C)(CCOCCOCCN)CC%131C9C%19%16` (stereo not given), for which the EC50 in the assay with CCRF-CEM [1] is above 4 µM; with CCRF-CEM [2], 0.4 µM. Further, the CC50 in the assay with CCRF-CEM [3] is 4.79 µM.
In the case of `COCCOCCOCCOC(=O)C1(C(=O)OCCOCCOCCOC)C23C4=C5c6c7c8c9c(c%10c%11c%12c%13c%14c%15c%16c%17c%18c%19c%20c%21c%22c%23c(c6c6c%22c%22c%20c(c%15%19)c%13c(c%129)c%22c86)C5C5C6c8c9c(c-%17c%12c8C5C%23C%21C%12%18)C5c8c-9c(c2c-%10c8C%112CN(CCOCCOCCN)CC%142C%165)C46)C713` (stereo not given), the concentration giving a half-maximal response (EC50) in the assay with CCRF-CEM [1] and in the assay on CCRF-CEM [2] was above 4 µM throughout.
In the case of `NCCOCCOCCN1CC23C4=c5c6c7c8c9c%10c%11c%12c%13c%14c%15c%16c%17c%18c%19c%20c%21c%22c(c2c%20c2c%20c%23c%24c(c5c7c5c9c7c%11c(c%12%16)c9c%17c(c%192)c%23c9c7c%245)C%203C1)C4C1C=6C2c3c1c-%22c(c-%14c3C%13C%10C82)C%211CN(CCOCCOCCN)CC%15%181` (stereo not given), the EC50 in the assay with CCRF-CEM [1] and in the assay on CCRF-CEM [2] was above 4 µM each time. Half-maximal cytotoxicity with CCRF-CEM [3] (CC50) was put at 7.4 µM.
As for `C[N+]1(CCOCCOCCN)CC23C4=C5c6c7c8c9c(c%10c%11c%12c%13c%14c%15c%16c%17c%18c%19c%20c%21c%22c%23c(c6c6c%22c%22c%20c(c%15%19)c%13c(c%129)c%22c86)C5C5C6c8c9c(c-%17c%12c8C5C%23C%21C%12%18)C5c8c-9c(c2c-%10c8C%112C[N+](C)(CCOCCOCCN)CC%142C%165)C46)C73C1` (stereo not given), the EC50 is above 4 µM in the assay with CCRF-CEM [1] and 1.6 µM in the assay on CCRF-CEM [2]. The CC50 with CCRF-CEM [3] was found to be 6.59 µM.
The like results for `C[N+]1(CCOCCOCCN)CC23C4=c5c6c7c8c9c%10c%11c%12c%13c%14c%15c%16c%17c%18c%19c%20c%21c%22c%23c%24c(c2c%22c2c%22c%25c%26c(c5c(c6%10)c5c%11c6c%13c(c%14%18)c%10c%19c(c%212)c%25c%10c6c%265)C%223C1)C4C7C1=C%24C(=C%16C2(C[N+](C)(CCOCCOCCN)CC182)C%15C9%12)C%23C%17%20` (stereo not given) were, in that order, above 4 µM, 0.96 µM and 3.02 µM.
The matching figures for `C[N+]1(CCOCCOCCN)CC23C4=c5c6c7c8c9c%10c%11c%12c%13c%14c%15c%16c%17c%18c%19c%20c%21c%22c(c2c%20c2c%20c%23c%24c(c5c7c5c9c7c%11c(c%12%16)c9c%17c(c%192)c%23c9c7c%245)C%203C1)C4C1C=6C2c3c1c-%22c(c-%14c3C%13C%10C82)C%211C[N+](C)(CCOCCOCCN)CC%15%181` (stereo not given): above 4 µM, 2.6 µM and 13.2 µM.
For `NCCOCCOCCN1CC23C4=c5c6c7c8c9c%10c%11c%12c%13c%14c%15c%16c%17c%18c%19c%20c%21c%22c%23c%24c(c2c%22c2c%22c%25c%26c(c5c(c6%10)c5c%11c6c%13c(c%14%18)c%10c%19c(c%212)c%25c%10c6c%265)C%223C1)C4C7C1=C%24C(=C%16C2(CN(CCOCCOCCN)CC182)C%15C9%12)C%23C%17%20` (stereo not given), the concentration for a half-maximal effect (EC50) with CCRF-CEM [1] and with CCRF-CEM [2] was above 4 µM in each case. Further, it took 7.63 µM to reach half-maximal cytotoxicity with CCRF-CEM [3] (CC50).
